Reference: US20260325500A1, “METHODS AND COMPOSITIONS FOR TREATING ACUTE STRESS DISORDER” (BioXcel Therapeutics, Inc., priority 2022, published 2026)
Entries after “also recorded” stand apart in the source; their conditions may differ. Counter-ions that a name gives are not always drawn.

Columns and labels:
[1] = tested on: rat forced swim test model (depressive-like behavior); experiment: Forced swim test in dark phase (Example 4); format: in vivo, Sprague Dawley rats; conditions: i.m.
Text: Animal groups: Male Sprague Dawley (SD) rats (8-10 weeks old) were grouped housed 2 per cage in standard animal cages with facilities for pelleted food and drinking water in polycarbonate bottle with stainless steel sipper tubes. During the experimental period, animals were housed in a single experimental room. Rats were distributed in 7 different experimental groups with 9-12 rats per group as illustrated in Table 8. Animals were distributed to different groups based on body weight data. Each experimental group was also coded so that the experimenter became unaware of the true experimental group at the time FST trial.
Animals were housed in an environment-controlled room at 22±3° C. and relative humidity of 30 to 70 percent. During the study, 12/12 light/dark cycles were maintained. Lights of the acclimatization area were switched off at 06:00 PM. All experiments were carried out at ambient temperature under dark phase of lighting (between 06:00 PM to 06:00 AM). Adequate fresh air supply of 12-15 air changes/hour was maintained in the experimental room. The maximum and minimum temperature and relative humidity in the experimental rooms was recorded once daily. The relative humidity in the experimental room was calculated daily from dry and wet bulb temperature recordings.
Swim 1 was carried out between 18:30 to 21:30.
Swim 2 was carried out between 19:30 to 21:30. Animals were administered test compounds from 18:30 onwards in staggered manner 60 minutes before FST 2.
Forced swim test was carried out in dark phase
On Day 1, animals were subjected to forced swim test training for 15 minutes (Swim 1) and on Day 2, Swim 2 was carried out post treatment.
On day 2 animals were dosed with respective treatment 60 min prior to performing FST.
Forced swim test (Swim 2) was scored manually with no video recording.
Forced swim test (FST), was used to study the depressive-like behavior in rodents. The test was carried out in transparent cylindrical glass containers measuring 46 cm in height and 20 cm in diameter.
There were 2 swim sessions, 24 h apart. The first session, Swim 1 was the pretest/training stage (15 min) and the second session, Swim 2, was the test stage (8 min).
In swim 2, first 1-minute data was excluded from analysis and rest 7 minutes data was considered. In 7 minutes, data, it was divided 5 minutes and 2 minute.
Twenty-four hours after the start of Swim 1, the test swim (Swim 2) was carried out.
Rat was placed in the water-filled cylinder for 8 min (Swim 2).
The duration of time spent immobile, swimming, and climbing was observed by an observer blind to the treatment group.
Immobility period: A rat was judged to be immobile when it remained floating in the water without struggling and was making only those movements necessary to keep its head above water.
Statistical analysis: One Way ANOVA, Dunnet's multiple comparison test was applied with respect to vehicle saline and Tukey's multiple comparison test was applied to compare the data in between the groups using GraphPad Prism version 9 software.

[2] = tested on: motor activity (locomotion) and sedation behavior of male Swiss albino mice; experiment: Open field test, motor activity (locomotion) and sedation (Example 7); format: in vivo; conditions: i.p.
Experimental: Rationale: The spontaneous locomotor activity in terms of total distance traveled is measured in open field test. Comparatively lower distance traveled would indicate either less motor activity or sedation.
Animal groups: Swiss albino male mice (6-7 weeks old; 25-40 g weight) were distributed in 10 different experimental groups with 12 […] per group as illustrated in Table
Study drugs: The test substances (Dexmedetomidine hydrochloride and latrepirdine dihydrochloride hydrate) were dissolved in 0.9% normal saline which served as the vehicle.
Study design and dosing: Mice were brought to the laboratory and allowed to acclimatize to the environment for at least 7 days. The open field test was done in lighting conditions of 40 lux light. The mice were dosed as per the grouping in Table 10. After a post dose interval of 60 minutes, 4 mice from a group were placed in the open field and the movement was tracked for a period of 30 minutes. Once the trial was over the mice were removed from the open field and the arena was cleaned. Following this, next set of 4 mice were placed in the arena and tracked.
Statistical analysis: The distance travelled for a period of 30 minutes was analyzed in bins of 5 minutes and was compared with that of the vehicle group using one-way ANOVA followed by Dunnett's test. All statistical analyses were performed using Graph pad prism software package (Version 7 or Higher) and p value below 0.05 was considered as significant.

[3] = tested on: Yohimbine-induced noradrenergic mediated hyperarousal in Wistar rats; experiment: Elevated plus maze, yohimbine-induced noradrenergic mediated hyperarousal (Example 2); format: in vivo; conditions: 10 mg/kg, i.m., 60 min prior; yohimbine 2.5 mg/kg i.p.
Text: Background: Yohimbine is an alpha 2-adrenergic receptor antagonist reported to trigger panic attacks in healthy volunteers and to exacerbate symptoms in patients with panic disorder (Charney et al., 1992 Acta Psychiatr Scand., Vol. 86 (4): 273-282). Peripheral administration of Yohimbine causes noradrenergic mediated hyperarousal in rats as assessed by the EPM paradigm.
Rationale: The drug yohimbine is a natural product used to test a specific pathway, noradrenergic-mediated hyper-arousal. It is well established that yohimbine is an alpha2-adrenergic receptor antagonist and activates the locus coeruleus (LC) and increases noradrenergic signaling (the opposite of alpha2-adrenergic agonists like dexmedetomidine and clonidine). Increased LC activity and noradrenergic signaling makes animals anxious and agitated which can be measured by using the elevated plus maze. In the elevated plus maze, rodents were in the closed arms and explored the open arms depending on their anxiety and agitation (rats and mice normally explore their environments extensively when calm). […] This behavior is correlated to increased level of anxiety caused by noradrenergic mediated hyperarousal.
Animal groups: Male: Wistar rats were used in this study and were randomly divided to different experimental groups (12 animals per group).
Study drugs: Four test drugs with different mechanisms of action linked to agitation were chosen to find drugs that are effective in reducing yohimbine-induced agitation: (1) Fluvoxamine (selective serotonin reuptake inhibitor) (2) Dextromethorphan (modulator of NMDA signals) (3) Diazepam (modulator of gamma-aminobutyric acid (GABA) as a positive control) and (4) Latrepirdine (complex pharmacology).
The test drugs were procured from Sigma or Tocris. dextromethorphan from Sigma Aldrich, Cat No. D9684; latrepirdine from Sigma Aldrich, Cat No. D6196 or Tocris Cat No. 3201 diazepam and fluvoxamine Sigma Aldrich, Cat No. F2802 or Tocris, Cat No. 1033. All these test drugs were formulated in sufficient quantity in 0.9% saline except for fluvoxamine, which was formulated in 30% ethanol in 0.9% saline.
Apparatus: Elevated Plus Maze (EPM) was used (FIG. 1). The maze consisted of two closed arms and two open arms forming a cross, with a square center platform. All visible surfaces were made of black acrylic. Each arm of the maze was placed on a support column above the floor. Antistatic black vinyl curtains used for surrounding the EPM to make an enclosure.
Study design and dosing: Yohimbine was administered by intraperitoneal injection (i.p.) at a dose of 2.5 mg/kg (30 minutes prior to study) to induce agitation and the effects were assessed 30 minutes after yohimbine injection by measuring the number of open arm entries and exploration time in the EPM. The test drugs fluvoxamine, dextromethorphan and latrepirdine dihydrochloride hydrate were administered through intramuscular route and, diazepam through intraperitoneal route into the hindleg thigh muscle of rats (60 minutes prior to study; 30 minutes prior to yohimbine administration). Diazepam was injected 30 minutes intraperitonially prior to the assay i.e. along with yohimbine administration. The study design is illustrated in FIG. 2 and table 5.
After the test drug administration, the rat was placed on the platform opposite a closed arm. The number of entries and the time spent in each arm were recorded during a 5 min period. The animal was considered as entered in arm when it placed its four paws into the arm.
Statistical analysis: Analysis of variance (ANOVA) was performed on the result data. Fisher's PLSD was used for pairwise comparisons and p value≤0.05 was considered significant.

Row | SMILES | climbing time ([1]; 1 μg/kg, versus vehicle saline) | increase in swimming time ([1]; 1 μg/kg, versus vehicle saline) | swimming time ([1]; 5 μg/kg) | immobility time ([1]; 1 and 5 μg/kg, versus vehicle saline) | distance traveled ([2]; 4 μg/kg, 10 μg/kg and 20 μg/kg) | distance traveled ([2]; 30 μg/kg) | reduction of noradrenergic mediated hyperarousal (open arm entries and time spent) [3]
1 | Cc1cccc([C@H](C)c2cnc[nH]2)c1C [dexmedetomidine hydrochloride] | significantly increased | ~ 1.6% | significantly increased | significantly decreased | did not show any significant reduction in distance traveled | significant reduction in distance traveled | –
2 | COc1ccc2c(c1)[C@]13CCCC[C@@H]1[C@H](C2)N(C)CC3 [dextromethorphan] | – | – | – | – | – | – | ineffective; also recorded: no effect
3 | COCCCC/C(=N\OCCN)c1ccc(C(F)(F)F)cc1 [fluvoxamine] | – | – | – | – | – | – | ineffective; also recorded: no effect
